SMILES strings stand for the structures.

These results are taken from patent US11746102B2, “Polymorphs of selinexor” (Karyopharm Therapeutics Inc., priority 2014, dated 2023).

This data set in a line: Solubility assessment (visual) of selinexor in solvents and solvent mixtures. The data set is classed as physicochemical. Particulars: any of the MTBE:heptane mixtures investigated.

Regarding `O=C(/C=C\n1cnc(-c2cc(C(F)(F)F)cc(C(F)(F)F)c2)n1)NNc1cnccn1` [Selinexor, (Z)-3-(3-(3,5-bis(trifluoromethyl)phenyl)-1H-1,2,4-triazol-1-yl)-N′-(pyrazin-2-yl)acrylohydrazide], the Solubility was above 100 volumes.
